Source: patent publication US11236302B2, “Methods and compositions for producing stem cell derived dopaminergic cells for use in treatment of neurodegenerative diseases” (BIOLAMINA AB, priority 2015, dated 2022)

Key:
[1] = system: RC17 hESCs; assay: Adherent differentiation of ventral mesencephalon progenitors on full-length laminin subtypes, day 0-11; type: cell-based, human; conditions: for yield of neural cells relative to a standard yield of 100%: laminin as coating, day 0-11 of the protocol
Excerpt: To develop a GMP-compatible differentiation protocol for high and reproducible yield of caudilised mesDA ventral mesencephalon progenitors that would result in good graft outcome, a fully GMP-derived hES cell line RC17 from Roslin cells (hPS Creg #RCe021-A) was used. Previous research grade ventral mesencephalon differentiation protocols have implemented steps of embryoid body (EB) formation or culturing on MATRIGEL®, both of which pose problems in GMP adaptation due to difficulties in reproducibility and the content of undefined animal-derived component, respectively.
Relative to a standard yield of 100%, LN-111 yielded 170%, LN-421 yielded 294%, LN-511 yielded 223%, and LN-521 yielded 208%. RC17 cells were differentiated according to the methods described herein, but on plates that were coated with laminin-121 instead of laminin-111. FIG. 8C compares the yields, and the yields are about equal to each other, i.e. LN-121 works about as well as LN-111 as a substrate.

[2] = system: undifferentiated hESCs; assay: Plating of undifferentiated hESCs on laminin matrix in pluripotency medium or differentiation medium; type: cell-based, human; conditions: laminin as matrix
Protocol: When the same number of cells was plated onto LN-111 in B27 medium, the cultures remained adherent and grew to confluency after 7 days of differentiation while showing rapid downregulation of pluripotency markers.

Row | Substance | yield of dopaminergic cells on LN-121 compared with LN-111 ([1]; RC17 cells, plates coated with laminin-121 instead of laminin-111) | yield of neural cells relative to a standard yield of 100% [1] | support of growth of pluripotent stem cells versus neural cells [2]
1 | LN-121: the protein formed by joining α1, β2 and γ1 chains together | about equal | – | –
2 | LN-521: the protein formed by joining α5, β2 and γ1 chains together | – | 208% | efficiently support growth of hPSCs
3 | LN-511: the protein formed by joining α5, β1 and γ1 chains together | – | 223% | efficiently support growth of hPSCs
4 | LN-111: the protein formed by joining α1, β1 and γ1 chains together | – | 170% | selectively supported the growth of neural cells but not pluripotent stem cells
5 | LN-421: the protein formed by joining α4, β2 and γ1 chains together | – | 294% | –
